According to patent US6582718B2, “Cyclosporin compositions” (Novartis AG, priority 1992, dated 2003):

Experiment: Irritation of the eyes by surfactants used in eye-drops
From the text: In an attempt to solve these problems, studies have been conducted with various surfactants which are currently used for formulating medical substances with low solubility in water, especially the most commonly used surfactants polysorbate 80 and polyoxyethylene hydrogenated castor oil.

Polyoxyethylene hydrogenated castor oil
irritation of the eyes: strongly irritate the eyes
